Series [1] is described as follows: Protective index, ratio of TD50 in ip Swiss mouse dosed intraperitoneally 30 mins before test by Chimney test to anticonvulsant ED50 in Swiss mouse dosed intraperitoneally 30 mins before test by MES test. The series is classed as ADME, organism-based. Particulars: in vivo, read-out: Ratio TD50/ED50.
A short description of series [2]: Toxicity in Swiss mouse assessed as effect on motor performance administered intraperitoneally 15 mins before test by Chimney test. It is filed as organism-based. Particulars: in vivo, ip.
For series [3], the system named is Mus musculus. In words: Anticonvulsant activity in Swiss mouse assessed as protection against seizures administered intraperitoneally 60 mins before test by maximal electroshock seizure test. To be noted: ip. It is filed as functional.
Series [4] in a line: Protective index, ratio of TD50 in ip Swiss mouse dosed intraperitoneally 15 mins before test by Chimney test to anticonvulsant ED50 in Swiss mouse dosed intraperitoneally 15 mins before test by MES test. Particulars: in vivo, read-out: Ratio TD50/ED50. It is filed as ADME, organism-based.
The species named for the next series is Rattus norvegicus. In words: Displacement of [3H]flunitrazepam form benzodiazepine receptor in rat cerebral cortex assessed as specific radio-ligand binding level at 1 uM incubated for 20 mins by liquid scintillation counting method. It is filed as tissue-based. (Displacement assays read how much labelled ligand stays bound in the presence of the test substance.)

A short description of series [5]: Protective index, ratio of TD50 in ip Swiss mouse dosed intraperitoneally 120 mins before test by Chimney test to anticonvulsant ED50 in Swiss mouse dosed intraperitoneally 120 mins before test by MES test. It is filed as ADME, organism-based. Particulars: in vivo, read-out: Ratio TD50/ED50.
Series [6] concerns Mus musculus. In words: Anticonvulsant activity in Swiss mouse assessed as protection against seizures administered intraperitoneally 120 mins before test by maximal electroshock seizure test. The series is classed as functional. Particulars: ip. (In general: In the maximal electroshock model the usual endpoint is tonic extension of the hind limbs.)
Series [7] concerns Mus musculus. Nature of the series: Anticonvulsant activity in Swiss mouse assessed as protection against seizures administered intraperitoneally 30 mins before test by maximal electroshock seizure test. It is filed as functional. To be noted: ip.
The nature of series [8]: Protective index, ratio of TD50 in ip Swiss mouse dosed intraperitoneally 60 mins before test by Chimney test to anticonvulsant ED50 in Swiss mouse dosed intraperitoneally 60 mins before test by MES test. The series is classed as ADME, organism-based. Particulars: in vivo, read-out: Ratio TD50/ED50.
Series [9] has as its target GABA-A receptor; anion channel (Homo sapiens) (UniProt P14867+P47870+P18507+P28472+P48169+Q99928+Q9UN88+P34903+O00591+O14764+Q8N1C3+P18505+P78334+P47869+P31644+Q16445). Nature of the series: Displacement of [3H]muscimol form GABAA receptor in rat cerebral cortex assessed as specific radio-ligand binding level at 1 uM incubated for 10 mins by liquid scintillation counting method. It is filed as tissue-based. Particulars: target entry is the homologue from another species.

A short description of series [10]: Toxicity in Swiss mouse assessed as effect on motor performance administered intraperitoneally 30 mins before test by Chimney test. It is filed as organism-based. To be noted: in vivo, ip.
The test system of series [11] is Mus musculus. Nature of the series: Anticonvulsant activity in Swiss mouse assessed as protection against seizures at 300 mg/kg, ip administered 15 mins before test by maximal electroshock seizure test. The series is classed as functional. To be noted: route intraperitoneal.
The test system of series [12] is Mus musculus. Nature of the series: Anticonvulsant activity in Swiss mouse assessed as protection against seizures at 300 mg/kg, ip administered 120 mins before test by maximal electroshock seizure test. The series is classed as functional. To be noted: route intraperitoneal.
Series [13] deals with Mus musculus. In words: Anticonvulsant activity in Swiss mouse assessed as protection against seizures administered intraperitoneally 15 mins before test by maximal electroshock seizure test. It is filed as functional. Particulars: ip.
Series [14] relates to Mus musculus. Nature of the series: Anticonvulsant activity in Swiss mouse assessed as protection against seizures at 300 mg/kg, ip administered 60 mins before test by maximal electroshock seizure test. The series is classed as functional. Particulars: route intraperitoneal.
The subject of series [15] is Mus musculus. Nature of the series: Anticonvulsant activity in Swiss mouse assessed as protection against seizures at 300 mg/kg, ip administered 30 mins before test by maximal electroshock seizure test. The series is classed as functional. Particulars: route intraperitoneal.
Series [16] in a line: Toxicity in Swiss mouse assessed as effect on motor performance administered intraperitoneally 120 mins before test by Chimney test. It is filed as organism-based. Particulars: in vivo, ip.
Series [17] can be described thus: Toxicity in Swiss mouse assessed as effect on motor performance administered intraperitoneally 60 mins before test by Chimney test. The series is classed as organism-based. To be noted: in vivo, ip.

With `CCCCCCCn1c(Cc2cccc(Cl)c2)n[nH]c1=S`, the selectivity ratio at 0.5 h in series [1] stood at 8.4. Moreover, the TD50 at 0.25 h in [2] was 507 mg/kg. Also, the ED50 stood at 70.6 mg/kg with Mus musculus [3], 89.6 mg/kg in the series on Mus musculus [6], 76.3 mg/kg in the series with Mus musculus [7] and 49.7 mg/kg in the series with Mus musculus [13]. Besides, in series [4], the selectivity ratio at 0.25 h stood at 10.2. Further, the Activity was 1% in the series filed under Rattus norvegicus; 4% in series [9]; 100% in the series on Mus musculus [11]; 100% in the series on Mus musculus [12]; 100% in the series with Mus musculus [14]; 100% in the series on Mus musculus [15]. The selectivity ratio at 2 h in series [5] was determined as 4.9. The selectivity ratio at 1 h in series [8] turned out to be 7.3. Besides, the TD50 at 0.5 h in [10] turned out to be 640 mg/kg. In addition, in series [16], the TD50 at 2 h worked out at 442 mg/kg. The TD50 at 1 h in series [17] worked out at 519 mg/kg.

A word on the TD50: it is the dose at which the toxic effect under study appears in half of the subjects. In general, ED50 refers to the dose that gives a 50% effect, or the effect in half of the subjects.

For the origin of these results see ChEMBL document CHEMBL3351688, “Studies on the anticonvulsant activity of 4-alkyl-1,2,4-triazole-3-thiones and their effect on GABAergic system” (Eur J Med Chem, 2014).
